The text below walks through data of ChEMBL document CHEMBL5727515, “5-[3-[piperzin-1-yl]-3-oxo-propyl]-imidazolidine-2,4-dione derivatives as ADAMTS 4 and 5 inhibitors for treating E.G. osteoarthritis” (2020).

The structures appear in SMILES notation. Where only a bound is given, the exact number is not on record here.

The target of assay [1] is Collagenase 3 (Homo sapiens, UniProt P45452). Description: Human MMP13 is preactivated by incubated the enzyme in the same buffer complemented with 1 mM freshly prepared p-Aminophenylmercuric acetate (AMPA) for 1 h at 37° C.The reaction is initiated by adding to the assay plate 390 MMP FRET Substrate I (10 μL, 2.5 μM) in the same buffer.Finally, the fluorescence is read on the Envision (Perkin Elmer) after an incubation of 45 min at room temperature (Excitation 485 nm, Emission 530).

Assay [2] addresses T1, A disintegrin and metalloproteinase with thrombospondin motifs 5 (Homo sapiens, UniProt Q9UNA0).
T1 sequence (Q9UNA0 whole entry): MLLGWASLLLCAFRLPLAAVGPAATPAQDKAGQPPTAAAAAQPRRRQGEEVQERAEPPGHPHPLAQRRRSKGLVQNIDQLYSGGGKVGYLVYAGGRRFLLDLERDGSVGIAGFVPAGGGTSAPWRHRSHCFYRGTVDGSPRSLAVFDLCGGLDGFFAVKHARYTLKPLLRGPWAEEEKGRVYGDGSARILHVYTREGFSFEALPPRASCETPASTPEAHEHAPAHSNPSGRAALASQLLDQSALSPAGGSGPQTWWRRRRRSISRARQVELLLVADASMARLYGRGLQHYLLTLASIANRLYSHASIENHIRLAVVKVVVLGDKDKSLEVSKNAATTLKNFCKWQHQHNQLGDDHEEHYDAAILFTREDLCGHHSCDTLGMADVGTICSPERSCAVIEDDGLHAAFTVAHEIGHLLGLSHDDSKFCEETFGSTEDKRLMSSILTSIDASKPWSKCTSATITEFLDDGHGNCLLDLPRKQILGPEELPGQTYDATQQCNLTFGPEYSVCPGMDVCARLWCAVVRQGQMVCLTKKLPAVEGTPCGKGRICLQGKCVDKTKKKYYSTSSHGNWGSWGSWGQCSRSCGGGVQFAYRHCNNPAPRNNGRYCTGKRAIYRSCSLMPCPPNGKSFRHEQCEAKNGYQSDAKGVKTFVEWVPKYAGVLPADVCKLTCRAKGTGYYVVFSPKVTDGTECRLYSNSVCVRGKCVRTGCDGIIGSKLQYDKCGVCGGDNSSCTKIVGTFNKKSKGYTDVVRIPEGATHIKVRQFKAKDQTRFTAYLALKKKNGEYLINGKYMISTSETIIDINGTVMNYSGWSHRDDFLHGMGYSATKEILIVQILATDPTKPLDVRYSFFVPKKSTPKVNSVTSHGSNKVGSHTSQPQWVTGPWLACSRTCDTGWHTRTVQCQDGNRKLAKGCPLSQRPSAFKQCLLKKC
Description: hADAMTS-5 assay: The basis for the assay is the cleavage of the substrate TBIS-1 (5 FAM-TEGEARGSVILLK (5TAMRA)K-NH2) (SEQ ID NO: 2) by human ADAMTS-5.For the dose response (10 point), 4 μL of a dilution series of compound (2 mM highest concentration, 1/5 dilution in DMSO further diluted 1 in 10 in water, corresponding to a final highest concentration of 20 μM), is transferred to 384 well Fluotrac ….

Assay [3] has as its target Matrix metalloproteinase-14 (Homo sapiens, UniProt P50281). The experiment in a line: hMMP14 assay: The basis for the assay is the cleavage of the substrate 390 MMP FRET Substrate I (Anaspec Cat# AS-27076) by human MMP14 (Biomol, Cat#SE-259).For the dose response (10 point), 4 μL of a dilution series of compound 2 mM highest concentration, 1/5 dilution in DMSO further diluted 1 in 10 in water, corresponding to a final highest concentration of 20 μM), is transferred to 384 well ….

Assay [4] deals with Disintegrin and metalloproteinase domain-containing protein 17 (Homo sapiens, UniProt P78536). Description: hTACE assay: The basis for the assay is the cleavage of the substrate 5FAM-LAQAVRSSSRK-5TAMRA (SEQ ID No 3) (Anaspec, custom 34891) by human TACE (R&D SYSTEMS INC., Cat#930-ADB).For the dose response (10 point), 4 μL of a dilution series of compound (2 mM highest concentration, 1/5 dilution in DMSO further diluted 1 in 10 in water, corresponding to a final highest concentration of 20 μM), is ….
Disintegrin and metalloproteinase domain-containing protein 17, sequence (P78536 whole entry, the tested form may be a part): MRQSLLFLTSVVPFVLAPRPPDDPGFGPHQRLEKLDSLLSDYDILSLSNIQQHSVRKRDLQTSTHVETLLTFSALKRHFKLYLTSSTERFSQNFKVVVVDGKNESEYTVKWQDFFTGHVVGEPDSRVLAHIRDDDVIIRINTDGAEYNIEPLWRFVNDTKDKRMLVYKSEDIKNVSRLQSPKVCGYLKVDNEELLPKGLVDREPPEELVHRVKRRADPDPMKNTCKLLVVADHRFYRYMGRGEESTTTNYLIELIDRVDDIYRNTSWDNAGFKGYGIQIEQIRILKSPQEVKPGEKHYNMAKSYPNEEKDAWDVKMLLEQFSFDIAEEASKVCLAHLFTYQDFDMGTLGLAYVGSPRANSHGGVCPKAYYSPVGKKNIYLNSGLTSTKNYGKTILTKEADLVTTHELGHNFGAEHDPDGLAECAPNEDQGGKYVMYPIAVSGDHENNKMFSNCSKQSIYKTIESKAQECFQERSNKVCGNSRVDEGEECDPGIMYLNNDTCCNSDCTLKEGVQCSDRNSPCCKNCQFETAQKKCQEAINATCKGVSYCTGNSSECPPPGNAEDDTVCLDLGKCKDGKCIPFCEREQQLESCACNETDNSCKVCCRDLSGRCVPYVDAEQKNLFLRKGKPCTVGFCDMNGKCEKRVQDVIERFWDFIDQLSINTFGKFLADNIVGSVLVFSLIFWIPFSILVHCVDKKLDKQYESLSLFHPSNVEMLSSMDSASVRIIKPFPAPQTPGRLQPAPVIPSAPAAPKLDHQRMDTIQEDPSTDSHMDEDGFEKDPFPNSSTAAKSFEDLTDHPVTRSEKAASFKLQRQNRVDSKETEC

On to `COc1cc(C2CCN(C(=O)CC[C@H]3NC(=O)NC3=O)CC2)cc(Cl)c1Cl`, for which the IC50 in assay [1] was > 100 nM.
Same read-out and setting: next, `COc1cc(C2CCN(C(=O)CC[C@@]3(C)NC(=O)NC3=O)CC2)cc(Cl)c1Cl`: > 100 nM.
As for `COc1cc(C2CCN(C(=O)CC[C@H]3NC(=O)NC3=O)CC2)cc(OC)c1F`, the IC50 in assay [2], in assay [3] and in assay [1] was > 100 nM throughout.
As to `COc1cc(C2CCN(C(=O)CCC3(C)NC(=O)NC3=O)CC2)c(C)cc1Cl` (stereo not drawn), the IC50 in assay [2], in assay [4] and in assay [1] was > 100 nM each time.
For `COc1c(Cl)cc(Cl)cc1C1CCN(C(=O)CC[C@H]2NC(=O)NC2=O)CC1`, the IC50 in assay [2], in assay [4] and in assay [1] was > 100 nM each time.
As for `COc1c(Cl)cc(Cl)cc1C1CCN(C(=O)CC[C@@]2(C)NC(=O)NC2=O)CC1`, the half-maximal inhibitory concentration (IC50) in assay [2] and in assay [1] was > 100 nM throughout.

By IC50 is commonly meant the point on the concentration scale where inhibition reaches its midpoint.
